Reference: PubChem BioAssay (NCI)
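Dose response: 5 concentrations. Exposure: 48 h. Format: 96-well plates. Endpoint: linear interpolation; highest concentration if not reached. TGI marks complete inhibition of growth.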

How the values were obtained:
Assay in all cases: NCI-60 cell line screen, 48 h
K-562 leukemia = system: K-562 leukemia
NCI-H460 lung = system: NCI-H460 lung
HCC-2998 colon = system: HCC-2998 colon
OVCAR-3 ovarian = system: OVCAR-3 ovarian
A549 NSCLC = system: A549 NSCLC
HT29 colon = system: HT29 colon
SF-539 CNS = system: SF-539 CNS
RXF 393 renal = system: RXF 393 renal
OVCAR-5 ovarian = system: OVCAR-5 ovarian
MOLT-4 leukemia = system: MOLT-4 leukemia
SNB-19 CNS = system: SNB-19 CNS
A498 renal = system: A498 renal
M19-MEL melanoma = system: M19-MEL melanoma
DMS 114 small cell lung = system: DMS 114 small cell lung
RXF-631 renal = system: RXF-631 renal
TK-10 renal = system: TK-10 renal
DMS 273 small cell lung = system: DMS 273 small cell lung
SK-MEL-2 melanoma = system: SK-MEL-2 melanoma
KM12 colon = system: KM12 colon
HOP-62 NSCLC = system: HOP-62 NSCLC
UO-31 renal = system: UO-31 renal
IGROV1 ovarian = system: IGROV1 ovarian
UACC-257 melanoma = system: UACC-257 melanoma
UACC-62 melanoma = system: UACC-62 melanoma
M14 melanoma = system: M14 melanoma
SK-MEL-28 melanoma = system: SK-MEL-28 melanoma
XF 498 CNS = system: XF 498 CNS
EKVX NSCLC = system: EKVX NSCLC
HCT-116 colon = system: HCT-116 colon
KM20L2 colon = system: KM20L2 colon
HCT-15 colon = system: HCT-15 colon
SW-620 colon = system: SW-620 colon
SF-268 CNS = system: SF-268 CNS
SF-295 CNS = system: SF-295 CNS
SN12C renal = system: SN12C renal
SNB-75 CNS = system: SNB-75 CNS
CCRF-CEM leukemia = system: CCRF-CEM leukemia
HOP-92 NSCLC = system: HOP-92 NSCLC
RPMI-8226 leukemia = system: RPMI-8226 leukemia
786-0 renal = system: 786-0 renal
ACHN renal = system: ACHN renal
COLO 205 colon = system: COLO 205 colon
MALME-3M melanoma = system: MALME-3M melanoma
SK-OV-3 ovarian = system: SK-OV-3 ovarian
NCI-H226 lung = system: NCI-H226 lung
OVCAR-4 ovarian = system: OVCAR-4 ovarian
HL-60(TB) leukemia = system: HL-60(TB) leukemia
OVCAR-8 ovarian = system: OVCAR-8 ovarian
NCI-H23 lung = system: NCI-H23 lung
DLD-1 colon = system: DLD-1 colon
LOX IMVI melanoma = system: LOX IMVI melanoma
LXFL 529 NSCLC = system: LXFL 529 NSCLC
SK-MEL-5 melanoma = system: SK-MEL-5 melanoma
SNB-78 CNS = system: SNB-78 CNS
U251 CNS = system: U251 CNS
SR leukemia = system: SR leukemia
CAKI-1 renal = system: CAKI-1 renal
NCI-H522 lung = system: NCI-H522 lung
HOP-18 NSCLC = system: HOP-18 NSCLC

In the case of `COc1ccccc1C12OC(=O)C1(C)Oc1ccccc1C2=O` (stereo not drawn), the TGI (K-562 leukemia) is reported as greater than 100 µM, the TGI (NCI-H460 lung) is reported as greater than 100 µM and the TGI (HCC-2998 colon) is reported as greater than 100 µM. It also gave a TGI (OVCAR-3 ovarian) greater than 100 µM, a TGI (A549 NSCLC) greater than 100 µM and a TGI (HT29 colon) greater than 100 µM. The TGI (SF-539 CNS) was greater than 100 µM, the TGI (RXF 393 renal) was greater than 100 µM and the TGI (OVCAR-5 ovarian) was greater than 100 µM. For the same compound, the TGI (MOLT-4 leukemia) was greater than 100 µM, the TGI (SNB-19 CNS) was greater than 100 µM and the TGI (A498 renal) was greater than 100 µM. The TGI (M19-MEL melanoma) was greater than 100 µM, the TGI (DMS 114 small cell lung) was greater than 100 µM and the TGI (RXF-631 renal) was greater than 100 µM. The TGI (TK-10 renal) was greater than 100 µM, the TGI (DMS 273 small cell lung) was 86.4 µM and the TGI (SK-MEL-2 melanoma) was greater than 100 µM. It also gave a TGI (KM12 colon) greater than 100 µM, a TGI (HOP-62 NSCLC) greater than 100 µM and a TGI (UO-31 renal) greater than 100 µM. For the same compound, the TGI (IGROV1 ovarian) was greater than 100 µM, the TGI (UACC-257 melanoma) was greater than 100 µM and the TGI (UACC-62 melanoma) was greater than 100 µM. It also gave a TGI (M14 melanoma) greater than 100 µM, a TGI (SK-MEL-28 melanoma) greater than 100 µM and a TGI (XF 498 CNS) greater than 100 µM. It also gave a TGI (EKVX NSCLC) greater than 100 µM, a TGI (HCT-116 colon) greater than 100 µM and a TGI (KM20L2 colon) greater than 100 µM. For the same compound, the TGI (HCT-15 colon) was greater than 100 µM, the TGI (SW-620 colon) was greater than 100 µM and the TGI (SF-268 CNS) was greater than 100 µM. For the same compound, the TGI (SF-295 CNS) was greater than 100 µM, the TGI (SN12C renal) was greater than 100 µM and the TGI (SNB-75 CNS) was greater than 100 µM. The TGI (CCRF-CEM leukemia) was greater than 100 µM, the TGI (HOP-92 NSCLC) was greater than 100 µM and the TGI (RPMI-8226 leukemia) was greater than 100 µM. The TGI (786-0 renal) was greater than 100 µM, the TGI (ACHN renal) was greater than 100 µM and the TGI (COLO 205 colon) was greater than 100 µM. For the same compound, the TGI (MALME-3M melanoma) was greater than 100 µM, the TGI (SK-OV-3 ovarian) was greater than 100 µM and the TGI (NCI-H226 lung) was greater than 100 µM. It also gave a TGI (OVCAR-4 ovarian) greater than 100 µM, a TGI (HL-60(TB) leukemia) greater than 100 µM and a TGI (OVCAR-8 ovarian) greater than 100 µM. It also gave a TGI (NCI-H23 lung) greater than 100 µM, a TGI (DLD-1 colon) greater than 100 µM and a TGI (LOX IMVI melanoma) greater than 100 µM. The TGI (LXFL 529 NSCLC) was greater than 100 µM, the TGI (SK-MEL-5 melanoma) was greater than 100 µM and the TGI (SNB-78 CNS) was greater than 100 µM. The TGI (U251 CNS) was greater than 100 µM.
In the case of `O=C(COc1ccc(Br)cc1Br)N1N=C(c2ccc([N+](=O)[O-])o2)CC1(O)c1ccccc1` (stereo not drawn), the TGI (K-562 leukemia) is reported as greater than 100 µM, the TGI (NCI-H460 lung) is reported as 20.4 µM and the TGI (HCC-2998 colon) is reported as 23.1 µM. For the same compound, the TGI (OVCAR-3 ovarian) was 20.2 µM, the TGI (SR leukemia) was 8.77 µM and the TGI (A549 NSCLC) was 72.2 µM. For the same compound, the TGI (HT29 colon) was 48 µM, the TGI (RXF 393 renal) was 15.7 µM and the TGI (OVCAR-5 ovarian) was 98.2 µM. For the same compound, the TGI (CAKI-1 renal) was 65.3 µM, the TGI (MOLT-4 leukemia) was 8.98 µM and the TGI (SNB-19 CNS) was 68.2 µM. The TGI (A498 renal) was 23.8 µM, the TGI (DMS 114 small cell lung) was 23.5 µM and the TGI (DMS 273 small cell lung) was 32.5 µM. It also gave a TGI (SK-MEL-2 melanoma) of 31.3 µM, a TGI (KM12 colon) of 45.3 µM and a TGI (HOP-62 NSCLC) of 27.5 µM. The TGI (UO-31 renal) was 21.3 µM, the TGI (IGROV1 ovarian) was 75.9 µM and the TGI (UACC-257 melanoma) was 45.4 µM. For the same compound, the TGI (UACC-62 melanoma) was 18.7 µM, the TGI (M14 melanoma) was 21.9 µM and the TGI (SK-MEL-28 melanoma) was 28 µM. For the same compound, the TGI (NCI-H522 lung) was 20.7 µM, the TGI (EKVX NSCLC) was 9.59 µM and the TGI (HCT-116 colon) was 33.2 µM. The TGI (KM20L2 colon) was 58.8 µM, the TGI (HCT-15 colon) was 18.7 µM and the TGI (SW-620 colon) was 33.3 µM. It also gave a TGI (SF-268 CNS) of 36 µM, a TGI (SF-295 CNS) of 53.7 µM and a TGI (HOP-18 NSCLC) of 41 µM. The TGI (SN12C renal) was 25.7 µM, the TGI (SNB-75 CNS) was 45 µM and the TGI (CCRF-CEM leukemia) was 14.8 µM. It also gave a TGI (RPMI-8226 leukemia) of 8.96 µM, a TGI (786-0 renal) of 44.1 µM and a TGI (ACHN renal) greater than 100 µM. For the same compound, the TGI (COLO 205 colon) was 7.05 µM, the TGI (MALME-3M melanoma) was 25.1 µM and the TGI (SK-OV-3 ovarian) was greater than 100 µM. It also gave a TGI (NCI-H226 lung) of 36.4 µM, a TGI (OVCAR-4 ovarian) greater than 100 µM and a TGI (HL-60(TB) leukemia) of 17.1 µM. The TGI (OVCAR-8 ovarian) was 36.7 µM, the TGI (NCI-H23 lung) was 36 µM and the TGI (DLD-1 colon) was 30.2 µM. It also gave a TGI (LOX IMVI melanoma) of 18.4 µM, a TGI (LXFL 529 NSCLC) of 21.6 µM and a TGI (SK-MEL-5 melanoma) of 16.1 µM. For the same compound, the TGI (SNB-78 CNS) was greater than 100 µM and the TGI (U251 CNS) was 22.9 µM.
